These results are taken from ChEMBL document CHEMBL4715750, “Synthesis and in vitro, ex-vivo and in vivo activity of hybrid compounds linking a potent ROS and RNS scavenger activity with diverse substrates addressed to pass across the blood-brain barrier” (Eur J Med Chem, 2016).

Series [1] is described as follows: Cytotoxicity against human SH-SY5Y cells assessed as cell viability at 25 uM measured after 24 hrs by MTT assay relative to control. The format is cell-based. To be noted: read-out: Activity. (Tetrazolium dyes change colour on reduction, which living cells bring about.)
A short description of series [2]: Drug concentration in Sprague-Dawley rat plasma at 0.2 mmol/Kg, ip measured after 1 hr by HPLC based fluorimetric analysis. Type of series: ADME, organism-based.
A short description of series [3]: Cytotoxicity against human SH-SY5Y cells assessed as cell viability at 100 uM measured after 24 hrs by MTT assay relative to control. Type of series: cell-based. The settings on record: read-out: Activity.
Series [4] can be described thus: Cytotoxicity against human SH-SY5Y cells assessed as cell viability at 25 uM measured after 2 hrs by MTT assay relative to control. The format is cell-based. To be noted: read-out: Activity.
Series [5] can be described thus: Cytotoxicity against human SH-SY5Y cells assessed as cell viability at 12.5 uM measured after 2 hrs by MTT assay relative to control. The format is cell-based. To be noted: read-out: Activity.
The nature of series [6]: Cytotoxicity against human SH-SY5Y cells assessed as cell viability at 50 uM measured after 24 hrs by MTT assay relative to control. The format is cell-based. The settings on record: read-out: Activity.
Series [7] can be described thus: Cytotoxicity against human SH-SY5Y cells assessed as cell viability at 1.6 uM measured after 2 hrs by MTT assay relative to control. To be noted: read-out: Activity. Type of series: cell-based.
Series [8] in a line: Cytotoxicity against human SH-SY5Y cells assessed as cell viability at 50 uM measured after 2 hrs by MTT assay relative to control. Type of series: cell-based. To be noted: read-out: Activity.
A short description of series [9]: Cytotoxicity against human SH-SY5Y cells assessed as cell viability at 6.3 uM measured after 2 hrs by MTT assay relative to control. The format is cell-based. The settings on record: read-out: Activity.
A short description of series [10]: Retention time in Sprague-Dawley rat brain by HPLC based fluorimetric analysis. The format is ADME, tissue-based.
The nature of series [11]: Antioxidant activity assessed as DPPH radical scavenging activity incubated for 60 mins in absence of light. The format is functional. For orientation: Loss of DPPH colour is used to gauge radical scavenging.
A short description of series [12]: Retention time in Sprague-Dawley rat plasma by HPLC based fluorimetric analysis. Type of series: ADME, cell-free.
A short description of series [13]: Cytotoxicity against human SH-SY5Y cells assessed as cell viability at 1.6 uM measured after 24 hrs by MTT assay relative to control. To be noted: read-out: Activity. Type of series: cell-based.
Series [14] is described as follows: Cytotoxicity against human SH-SY5Y cells assessed as cell viability at 6.3 uM measured after 24 hrs by MTT assay relative to control. Type of series: cell-based. To be noted: read-out: Activity.
Series [15] can be described thus: Cytotoxicity against human SH-SY5Y cells assessed as cell viability at 100 uM measured after 2 hrs by MTT assay relative to control. Type of series: cell-based. The settings on record: read-out: Activity.
Series [16] is described as follows: Cytotoxicity against human SH-SY5Y cells assessed as cell viability at 3.1 uM measured after 24 hrs by MTT assay relative to control. Type of series: cell-based. The settings on record: read-out: Activity.
Series [17] relates to SH-SY5Y. As to the kind of experiment: Antioxidant activity in human SH-SY5Y cells assessed as inhibition of H2O2-induced DCFH oxidation measured after 1 hr by DCFH-DA dye based fluorescence assay. Type of series: functional, cell-based.
Series [18] is described as follows: Cytotoxicity against human SH-SY5Y cells assessed as cell viability at 0.8 uM measured after 2 hrs by MTT assay relative to control. The format is cell-based. To be noted: read-out: Activity.
A short description of series [19]: Drug concentration in Sprague-Dawley rat brain at 0.2 mmol/Kg, ip measured after 1 hr by HPLC based fluorimetric analysis. Type of series: ADME, organism-based. To be noted: in vivo.
Series [20] is described as follows: Cytotoxicity against human SH-SY5Y cells assessed as cell viability at 12.5 uM measured after 24 hrs by MTT assay relative to control. Type of series: cell-based. The settings on record: read-out: Activity.
Series [21] in a line: Permeability of the compound at pH 7.4 by PAMPA-BBB assay. The format is ADME. The settings on record: read-out: permeability. A general note: In PAMPA a lipid-coated filter parts donor from acceptor wells.
Series [22] is described as follows: Cytotoxicity against human SH-SY5Y cells assessed as cell viability at 0.8 uM measured after 24 hrs by MTT assay relative to control. The format is cell-based. To be noted: read-out: Activity.
Series [23] is described as follows: Cytotoxicity against human SH-SY5Y cells assessed as cell viability at 3.1 uM measured after 2 hrs by MTT assay relative to control. Type of series: cell-based. The settings on record: read-out: Activity.
The subject of series [24] is SH-SY5Y. As to the kind of experiment: Cytoprotective activity against DMSO-induced toxicity in human SH-SY5Y cells. Type of series: functional, cell-based.

Active and inactive are the calls of the source. No cut-off for these calls is given here.

With `COc1cc2c(cc1O)CCC(C)(C)O2`, the viability at 24 h, 25 µM in [1] worked out at 93.2%. The same compound showed a concentration at 1 h in [2] of 2.4 µM. For the same compound, the viability at 24 h, 100 µM in [3] was determined as 96.1%. Besides, in [4], the viability at 2 h, 25 µM was 90.6%. For the same compound, in series [5], the viability at 2 h, 12.5 µM came to 91.5%. For the same compound, in series [6], the viability at 24 h, 50 µM was 95.2%. For the same compound, the viability at 2 h, 1.6 µM in series [7] came out at 94.1%. Further, in series [8], the viability at 2 h, 50 µM is 86.8%. For the same compound, in series [9], the viability at 2 h, 6.3 µM amounted to 92.2%. Further, the Retention_time in series [10] and in series [12] was 8 min each time. Moreover, the half-maximal inhibitory concentration (IC50) in series [11] amounted to 14.1 µM; in the series on SH-SY5Y [17], 21.7 µM. In addition, the viability at 24 h, 1.6 µM in series [13] came to 93.9%. Also, in series [14], the viability at 24 h, 6.3 µM was 98%. In addition, the viability at 2 h, 100 µM in series [15] was 66.9%. Also, in series [16], the viability at 24 h, 3.1 µM came to 99.4%. For the same compound, the Activity result in the series on SH-SY5Y [17] was “Dose-dependent effect”. For the same compound, in [18], the viability at 2 h, 0.8 µM was 98.5%. This compound also showed a Ct in series [19] of 4 nmol/g. For the same compound, the viability at 24 h, 12.5 µM in series [20] was 100%. Further, the Papp in series [21] turned out to be 0.25 ×10⁻⁶ cm/s. Further, the viability at 24 h, 0.8 µM in series [22] worked out at 91.1%. In addition, in [23], the viability at 2 h, 3.1 µM worked out at 85.6%.
For the compound `COc1cc2c(cc1O)CCC(C)(CC(N)C(=O)O)O2` (stereo not drawn), the viability at 24 h, 25 µM in [1] was 88.5%. In addition, the concentration at 1 h in series [2] was determined as 52.3 µM. Besides, the viability at 24 h, 100 µM in [3] is 60.1%. The viability at 2 h, 25 µM in [4] is 100%. Moreover, in series [5], the viability at 2 h, 12.5 µM came out at 100%. Also, the viability at 24 h, 50 µM in series [6] came to 85.7%. In [7], the viability at 2 h, 1.6 µM is 100%. Also, the viability at 2 h, 50 µM in series [8] was 100%. For the same compound, the viability at 2 h, 6.3 µM in [9] worked out at 100%. For the same compound, the Retention_time in series [10] was 7 min. Besides, the half-maximal inhibitory concentration (IC50) in [11] was 14.1 µM; with SH-SY5Y [17] it was greater than 200 µM. The viability at 24 h, 1.6 µM in series [13] came out at 100%. Besides, the viability at 24 h, 6.3 µM in series [14] was 100%. Also, the viability at 2 h, 100 µM in series [15] is 87.8%. Besides, in [16], the viability at 24 h, 3.1 µM was 100%. Besides, in the series with SH-SY5Y [17], the Activity result is “Dose-dependent effect”. The outcome in the series with SH-SY5Y [24] was Active. In addition, the viability at 2 h, 0.8 µM in series [18] turned out to be 100%. Further, in series [19], the Ct turned out to be 15.8 nmol/g. For the same compound, the viability at 24 h, 12.5 µM in series [20] stood at 100%. In addition, the Papp in [21] is 0.04 ×10⁻⁶ cm/s. Also, the viability at 24 h, 0.8 µM in series [22] is 82.7%. Further, in series [23], the viability at 2 h, 3.1 µM stood at 100%.

One may read the IC50 as the point on the concentration scale where inhibition reaches its midpoint.
